For assay [1], the system named is anammox activity of reactor effluent. The assay can be described thus: Incubations of reactor effluent with effectors; anammox activity from headspace gas production rate. It counts as cell-based, "Ca. Kuenenia stuttgartiensis". The note with it: for IC50: 30°C. As to the method:
60 mL nitrogen-flushed glass bottles were anoxically filled with 50 mL reactor effluent and closed with butyl rubber septa and aluminum crimp caps. Effectors were anoxically added with sterile syringes through the septa or directly added to the bottles as powder. Except for the experiment in which nitrite was varied, 3 mM nitrite was added at time 0. Each bottle was directly connected to a MPX5100DP pressure sensor via a 0.41 mm Luer Lock needle. All sensors were electrically connected to a LabJack converter for data reading and storage. Pressure sensors were read every 3 seconds. In total, twelve such bottles were set up for each experiment, allowing the simultaneous testing of five different effector concentrations in duplicate plus two bottles as negative controls without effector.
Experiments were incubated for 24 hours after which 3 mL air was injected into each bottle for calibration of the pressure sensor readings. Gas production rates were calculated as mL per day across 1,000 consecutive data points (3,000 seconds). […] The same time frame was chosen for all twelve bottles in one experiment to calculate anammox activities from the slopes.
For that the reactor effluent was incubated in closed bottles and monitored the pressure build-up in the headspace over time. […] Legend: the number before the dash indicates the chloramphenicol concentration in mg L^-1, the number behind the dash indicates the number of the replicate. (A) Gas production; (B) Gas production rate calculated in a window of 1,000 consecutive data points (equivalent to 3,000 seconds).

The subject of assay [2] is anammox activity of "Ca. Kuenenia stuttgartiensis ". The following applies: 1 g L^-1 chloramphenicol; cited from earlier work.
For assay [3] the test system is unchanged. The note with it: 20 mg L^-1 chloramphenicol, sequencing batch reactor, after 4 days; cited from earlier work.
In assay [4] the test system is "Ca. Kuenenia stuttgartiensis". The following applies: previous reports; cited from earlier work.
A further assay has as its system anammox activity. Description: Semi-CSTR reactor operation under critical conditions (pulse addition, reactor collapse). In kind it is cell-based, "Ca. Kuenenia stuttgartiensis". The note with it: pulse of 0.2 mM Na2S added to the reactor. As to the method:
The reactor effluent was collected in anoxic 2-liter bottles and stored in the dark at 4°C to be used later for inhibitor tests (see below) or as inoculum when the reactor collapsed. During one-year operation under experimental conditions, the reactor intentionally collapsed three times under three different critical conditions: 1) after the reactor was incubated for 24 h at 38.6°C without feeding nitrite, 2) after a pulse of 0.2 mM Na2S was added, and 3) after a pulse of 65 µM FeCl2 was added. […] After such reactor collapses, the reactor could be reproducibly regenerated with the stored eluent bottles. The activity in the effluent bottles was recovered, as judged from pressure production rates, within only 2 days when a bottle was warmed up to room temperature, spiked with 3 mM nitrite and incubated at 30°C. Effluent could be stored at 4°C for at least three months without startup delay.

Where [5] appears, read: reactor effluent, gas production rate normalized to controls without effector.

Data on 6 compounds can be found in patent EP3502234B1, “ANAEROBIC AMMONIUM OXIDATION WITH PLANKTONIC CELLS IN A CONTINUOUS OR SEMI-CONTINUOUS STIRRED-TANK REACTOR” (priority 2017, dated 2019).

Turning to `[Cl-].[Na+]` [NaCl], the figures for the inhibition in assay [1] (270 mM salt) and in assay [1] (salt concentrations up to 120 mM) were 75% and “No apparent inhibition”, respectively. Moreover, the “salt concentrations that start to inhibit anammox activity” value in assay [1] (reactor effluent) is 120 to 270 mM.
Regarding `O=C(N[C@H](CO)[C@H](O)c1ccc([N+](=O)[O-])cc1)C(Cl)Cl` [chloramphenicol], in assay [2], the inhibition (in general, the relative decrease from the control value, in per cent) was “no apparent inhibition”. Further, in assay [3], the “drop in reactor efficiency” value is listed as 25% and the “drop in specific anammox activity” value is given as 75%. In assay [1] (chloramphenicol 30 mg L^-1), this compound came in with an inhibition at 30 µg/mL of 57%. Besides, the IC50 (in general, the concentration that gives 50% inhibition) in assay [1] (reactor effluent, 3 mM nitrite) is 19 µg/mL.
In turn, `CN(C)c1ccc2nc3ccc(=[N+](C)C)cc-3sc2c1` [methylene blue] registered an inhibition in assay [1] (100 µg L^-1 methylene blue) of 86%. The “inhibition of anammox activity” value in assay [1] (methylene blue 10 µg L^-1) is recorded as “no apparent inhibition”. The compound also showed an IC50 in assay [1] (reactor effluent, 3 mM nitrite) of 0.053 µg/mL.
On to `O=N[O-].[Na+]` [nitrite, NaNO2], for which the tolerant to nitrite in assay [4] was 13 to 25 mM. Further, the inhibition in assay [1] (nitrite at 6 mM) was 24%; in assay [1] (nitrite at 6 mM, as worded in the discussion) it was “severe inhibition”. Moreover, the IC50 in assay [1] (setting [5]) amounted to 9.6 mM.
Consider `[Na+].[Na+].[S-2]` [sulfide, Na2S], for which the “effect on the reactor” value with anammox activity was “complete loss of the anammox activity”. The same compound returned an IC50 in assay [1] (reactor effluent, 3 mM nitrite) of 0.005 mM. In assay [1] (sulfide at 5 µM), the “inhibition of anammox activity” value was “severely inhibited”.
For the compound phosphate, the “anammox activity higher than in the controls at 1.5 mM” value in assay [1] (6.5 mM phosphate) came to 11%. This compound also displayed an anammox activity preserved in assay [1] (highest tested concentration of 51.5 mM phosphate) of 65%. Further, the “increase of anammox activity” value in assay [1] (phosphate concentration increased from 1.5 mM to 3.5 mM) was 16%. In addition, in assay [1] (setting [5]), the IC50 is more than 51.5 mM.
